# In US20240374626A1, “METHODS OF ENHANCING MILK PRODUCTION IN LACTATING MAMMALIAN SUBJECTS” (priority 2023, published 2024):
# How the values were obtained:
# Assay type in all cases: cell-based, mouse
# [1] = test system: HC11 cells; assay: Milk production markers in differentiated HC11 (milk domes, Csn2 RT-qPCR, CSN2 WB, PLIN2 ICC)
# Procedure: (§1) The HC11 cell line was obtained from American Type Culture Collection (ATCC) and routinely checked for mycoplasma (Mycoplasma PCR kit, ABM, G238). Undifferentiated HC11 cells were cultured in growing medium (RPMI-1640; Thermo Fisher Scientific, 72400047), supplemented with 10% FBS, 5 μg/ml insulin (Millipore-Sigma, 16634), 10 ng/ml epidermal growth factor (EGF; Preprotech, AF-100-15) and 1× AntiAnti (Thermo Fisher Scientific, 15240112) at 37° C. with 5% CO2. Cells were grown to confluency and maintained in growing medium for 2 days, until they became competent. Competent HC11 cells were primed for differentiation by culturing them in priming medium [RPMI-1640 supplemented with 5 μg/ml insulin, 1 μM dexamethasone (Millipore-Sigma, D4902-1 G) and 1× Anti-Anti] for 24 h at 37° C. with 5% CO2. To induce differentiation, primed HC11 cells were cultured in DIP Medium [RPMI-1640, supplemented with 10% FBS, 5 μg/ml insulin, 1 μM dexamethasone, 1× anti-anti and 3 μg/ml Prolactin (NHPP, oPRL-21)] at 37° C. with 5% CO2.
# (§2) […] Drugs were maintained through the differentiation process and added with every change of media.
# Whole cell lysates were prepared using 1×NP40 lysis buffer (Thermo Fisher Scientific, FNN0021) supplemented with Pierce Protease and Phosphatase inhibitors (Thermo Fisher Scientific, A32959). Cells were washed with ice-cold PBS (GIBCO, 14190136) and lysed direct in buffer and kept at 4° C. rocking at 70 rpm for 30 min. Lysed cells were collected and centrifuged at 12,000 rpm at 4° C. for 15 min. Protein concentration was quantified using Qubit 4 fluorometer (Thermo Fisher, Q33238). Samples were resolved by SDS page and transferred to polyvinylidene difluoride (PVDF, Millipore-Sigma, IPVH00010) for 60 min at 250 mA. Immunoblots were blocked for 1 h at room temperature using either 5% non-fat milk or 5% BSA TBST. Primary antibodies [anti-GAPDH (SCBT, sc-365062), anti-Actin (SCBT, sc-47778), anti-Cyclin B1 (SCBT, sc-245), anti-Cyclin E1 (Millipore-Sigma, SAB4503516) and anti-CSN2 (ABclonal, A12749)] were incubated overnight at 4° C. in a rocker. HRP-conjugated secondary antibodies ([…]) were used for 1 h at room temperature. Immunoblots were developed using Clarity ECL (Bio-Rad), detected using a Bio-Rad ChemiDoc MP Image, and quantified using ImageJ.
# HC11 cells were fixed using ice-cold MeOH for 10 min. After washing with 1×PBS, cells were incubated for 1 h at room temperature with primary antibodies [anti-γH2AX (SCBT, sc-517348), anti-pATR (Genetex, GTX128145), anti-PLIN2 (generously provided by Jim McManaman)] in a humid incubation chamber. After incubation, cells were washed three times using 1×PBS and incubated for 1 h at room temperature in darkness using corresponding Alexa Fluor AffiniPure secondary antibodies (Jackson ImmunoResearch) and Phalloidin-iFluor 488 Reagent (Abcam, ab176753) when indicated. Cells were washed three times using 1×PBS and incubated with Hoechst 33342 (AnaSpec, AS-83218) for 10 min. Cells were mounted using fluoromount-G (Southern Biotech, 0100-01) and visualized using Zeiss Axio Imager Microscope. Integrated density of PLIN2, nuclear γH2AX and nuclear pATR was quantify using ImageJ.
# For RNA isolation from FACS purified populations, mammary gland cell suspensions were blocked using Mouse BD Fc Block™ (BD Biosciences) for 10 min. Cells were subsequently resuspended on 1×PBS at a density of 10^7 cells/ml and stained with the following antibodies for 30 min on ice: anti-CD24 PE (Stem Cell Technologies, 60099PE.1), anti-CD29 PE-Cy7 (BioLegend, 102222), anti-CD45-APC (BioLegend,105826), Ter119-APC (BD Biosciences, 561033), CD31-ACP (BD Biosciences, 551262). Propidium iodide at a final concentration of 0.5 μg/ml was used for the discrimination of dead cells. Stromal, basal and luminal mammary populations were sorted using a BD FACS Aria II Cell Sorter. […]
# [2] = test system: HC11 cells; assay: FACS DNA content analysis of HC11 cells during lactogenic differentiation
# Procedure: as §1, §2
# For DNA content analysis of the mammary gland CK8^+ epithelial population, mammary gland cells suspension was obtained as described above. Cells were fixed in ice-cold 70% EtOH at a final concentration of 10^6 cells/ml. During fixation, cells were vigorously vortexed for 1 min to avoid the formation of cell aggregates. Cells were washed twice with washing buffer [1×PBS containing 5% FBS and 0.5% tween 20 (Fisher Chemical, BP337500)] and centrifuged at 2,000 rpm for 5 min at 4° C. Cell pellet was incubated for 1 h at room temperature with anti-CK8 (Developmental Studies Hybridoma Lab, TROMA-1), anti-GFP (Thermo Fisher, A01704) or corresponding rat (Thermo-Fisher, 10700) or rabbit (Thermo-Fisher, 10500C) IgG isotype controls. Cells were washed twice and incubated for 1 h at room temperature in darkness with FITC anti-Rat (Thermo Fisher, A24544) or FITC anti-Rabbit (Thermo Fisher, A16030) and APC anti-Rat (Jackson ImmunoResearch, 712-136-153). Cells were washed twice and resuspended in propidium iodide solution [1×PBS containing 25 μg/ml of propidium iodide (Thermo Fisher, P3566) and 100 μg/ml of RNAse (Thermo Fisher, 12091021)]. For DNA content analysis on HC11, cells were washed with 1×DPBS (GIBCO, 14190-250) and harvested using 0.05% Trypsin-EDTA (GIBCO, 25300-062). Cell suspension was washed with 1×DPBS and centrifuged at 1,000 rpm for 5 min at 4° C. Cell pellet was fixed in ice-cold 70% EtOH and then vortexed vigorously to avoid cell aggregates. After fixation, cells were washed with washing buffer [1×PBS (GIBCO, 14190136) supplemented with 5% FBS] and centrifuged at 2,000 rpm for 5 min at 4° C. The pellet was resuspended in propidium iodide solution. Cell suspensions were filtered through a 70 μm cell strainer (Falcon, 08-771-2) and analyzed using a BD LSRII cytometer or a BD FACS Aria II Cell Sorter. Populations were analyzed using FlowJo.
# [3] = test system: HC11 cells; assay: Visualization of FACS-purified HC11 subpopulations sorted on DNA content (nuclei number); conditions: sorted on DNA content 4C or >4C
# Procedure: as §2
# Mammary gland CK8+ epithelial cells or HC11 were sorted based on DNA content using BD FACS Aria II Cell Sorter. After sorting, cells were stained in suspension using Phalloidin-iFluor 488 Reagent (Abcam, ab176753) for 30 min at room temperature in darkness. Cells were spined down onto microscopy slides (Fisher, 12-550-15) using Cytospin 2 (Shandon, 599X52) at 500 rpm for 3 min. Cells were mounted using fluoromount-G (Southern Biotech, 0100-01) and visualized using Zeiss Axio Imager Microscope.
# [4] = blebbistatin 30 uM, differentiated HC11
# [5] = Ro-3306 5 μM, differentiated HC11 (DIP3)
Structure (SMILES),"expression of Periplin-2 (PLIN2), ICC [1, 4]","expression of β-Casein (Csn2), RT-qPCR [1, 4]","formation of milk-containing domes [1, 4]","endoreplication / polyploidy (FACS DNA content) ([2]; blebbistatin 30 uM, differentiation day 3 (DIP3))","mitotic arrest / proportion of tetraploid cells (FACS DNA content) ([2]; undifferentiated HC11 at 80% confluence, blebbistatin 30 uM, 6 hours post-treatment)","nuclei number of cells generated (mono-, bi-, multinucleated) ([3]; blebbistatin, differentiated HC11 (DIP3))","CSN2 expression, RT-qPCR [1, 5]","CSN2 expression, WB [1, 5]","endoreplication / polyploidy (FACS DNA content) ([2]; Ro-3306 5 μM, DIP3)","mitotic arrest / accumulation of tetraploid cells (FACS DNA content) ([2]; undifferentiated HC11 at 80% confluence, Ro-3306 5 μM, 6 hours after treatment)","nuclei number of polyploid cells generated (mono-, bi-, multinucleated) ([3]; Ro-3306, differentiated HC11 (DIP3))"
Cc1ccc2c(c1)C(=O)C1(O)CCN(c3ccccc3)C1=N2 (centres unmarked) [blebbistatin],increased expression,increased expression,increase in the formation of milk-containing domes,"undergo further endoreplication, becoming polyploid","efficiently induces mitotic arrest in HC11 cells, increasing the proportion of tetraploid cells",predominantly generates bi- and multinucleated cells,,,,,
O=C1NC(=NCc2cccs2)S/C1=C\c1ccc2ncccc2c1 [Ro-3306],,,,,,,increases,increases,"undergo further endoreplication, becoming polyploid","efficiently induces mitotic arrest, as detected by the accumulation of tetraploid cells","generates mono-, bi- and multinucleated polyploid cells"
